Where “and” joins values, the source holds several entries; their conditions need not be identical. Equal entries are not always repeated. Where two headings read alike, the source gives them in different places.
Tests used:
[1] = test system: molidustat glucuronidation (clearance); experiment: In vitro-in vivo scaling: predicted increase in molidustat AUC; set-up: species or system human; conditions: based on mass balance study, no differentiation UGT1A1/UGT1A9
[2] = target: T1, UGT1A4 (Homo sapiens, UniProt P22310); experiment: M1 formation from molidustat by recombinant UGT1A4; assay type: in vitro ADME; conditions: 1 and 10 µmol L^−1
T1 sequence (P22310 29-534): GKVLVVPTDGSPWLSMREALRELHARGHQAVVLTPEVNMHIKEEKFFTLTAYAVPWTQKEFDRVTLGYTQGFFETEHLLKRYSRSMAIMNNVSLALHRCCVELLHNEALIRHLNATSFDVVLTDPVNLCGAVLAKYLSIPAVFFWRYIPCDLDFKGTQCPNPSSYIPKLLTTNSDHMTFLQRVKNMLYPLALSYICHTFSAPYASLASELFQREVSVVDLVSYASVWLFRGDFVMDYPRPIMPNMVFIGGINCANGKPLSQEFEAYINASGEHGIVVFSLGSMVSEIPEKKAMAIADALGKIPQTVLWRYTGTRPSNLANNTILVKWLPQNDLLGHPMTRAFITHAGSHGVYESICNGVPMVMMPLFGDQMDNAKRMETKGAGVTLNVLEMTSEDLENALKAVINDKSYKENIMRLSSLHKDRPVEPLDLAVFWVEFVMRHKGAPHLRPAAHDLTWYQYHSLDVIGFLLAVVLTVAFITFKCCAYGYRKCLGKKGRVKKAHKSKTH

[3] = target: T2, UGT1A6 (Homo sapiens, UniProt P19224); experiment: M1 formation from molidustat by recombinant UGT1A6; assay type: in vitro ADME; conditions: 1 and 10 µmol L^−1
T2 sequence (P19224 27-532): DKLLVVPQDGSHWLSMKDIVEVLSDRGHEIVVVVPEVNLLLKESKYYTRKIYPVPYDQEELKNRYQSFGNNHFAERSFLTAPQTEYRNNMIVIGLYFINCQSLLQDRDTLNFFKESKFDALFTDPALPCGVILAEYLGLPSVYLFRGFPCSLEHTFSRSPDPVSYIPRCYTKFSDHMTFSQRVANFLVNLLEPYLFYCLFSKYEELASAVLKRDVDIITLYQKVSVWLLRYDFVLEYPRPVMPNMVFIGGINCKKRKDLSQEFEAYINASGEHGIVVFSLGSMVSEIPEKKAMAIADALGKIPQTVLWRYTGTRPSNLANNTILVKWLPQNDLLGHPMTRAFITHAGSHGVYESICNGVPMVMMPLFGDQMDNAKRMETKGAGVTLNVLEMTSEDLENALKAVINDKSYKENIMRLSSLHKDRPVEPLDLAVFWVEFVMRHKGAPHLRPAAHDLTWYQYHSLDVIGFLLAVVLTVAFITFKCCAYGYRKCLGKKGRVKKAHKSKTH

[4] = target: T3, UGT1A10 (Homo sapiens, UniProt Q9HAW8); experiment: M1 formation from molidustat by recombinant UGT1A10; assay type: in vitro ADME; conditions: 1 and 10 µmol L^−1
T3 sequence (Q9HAW8 26-530): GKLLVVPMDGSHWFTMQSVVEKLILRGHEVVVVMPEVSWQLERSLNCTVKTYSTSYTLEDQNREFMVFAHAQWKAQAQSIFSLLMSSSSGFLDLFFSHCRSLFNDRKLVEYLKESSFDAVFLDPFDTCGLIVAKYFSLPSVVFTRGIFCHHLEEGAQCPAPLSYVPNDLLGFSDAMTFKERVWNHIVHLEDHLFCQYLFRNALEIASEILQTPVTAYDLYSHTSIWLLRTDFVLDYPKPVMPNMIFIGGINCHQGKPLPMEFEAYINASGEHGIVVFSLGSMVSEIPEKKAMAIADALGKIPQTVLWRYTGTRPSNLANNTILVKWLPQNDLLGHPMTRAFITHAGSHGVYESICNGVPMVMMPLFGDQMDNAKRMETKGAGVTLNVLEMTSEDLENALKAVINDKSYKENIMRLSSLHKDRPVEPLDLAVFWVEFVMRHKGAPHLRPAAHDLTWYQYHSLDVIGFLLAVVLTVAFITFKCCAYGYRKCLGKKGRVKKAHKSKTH

[5] = target: T4, UGT2B7 (Homo sapiens, UniProt P16662); experiment: M1 formation from molidustat by recombinant UGT2B7; assay type: in vitro ADME; conditions: 1 and 10 µmol L^−1
T4 sequence (P16662 24-529): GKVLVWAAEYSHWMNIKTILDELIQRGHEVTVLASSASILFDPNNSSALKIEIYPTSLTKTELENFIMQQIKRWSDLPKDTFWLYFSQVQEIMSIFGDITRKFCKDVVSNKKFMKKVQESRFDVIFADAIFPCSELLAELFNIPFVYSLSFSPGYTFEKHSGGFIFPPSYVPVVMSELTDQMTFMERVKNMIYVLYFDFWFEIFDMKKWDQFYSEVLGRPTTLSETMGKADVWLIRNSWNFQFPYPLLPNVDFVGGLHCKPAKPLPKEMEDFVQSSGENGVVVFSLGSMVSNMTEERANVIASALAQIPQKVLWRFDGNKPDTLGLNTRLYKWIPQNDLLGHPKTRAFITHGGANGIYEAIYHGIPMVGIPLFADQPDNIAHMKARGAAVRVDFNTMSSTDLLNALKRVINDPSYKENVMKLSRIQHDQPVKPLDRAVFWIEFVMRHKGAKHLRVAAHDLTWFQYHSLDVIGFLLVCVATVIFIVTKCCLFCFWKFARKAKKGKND

[6] = assay type: in vivo, human; conditions: for Point estimate parameter ratio, AUC / Point estimate parameter ratio, AUC(0‐tlast) / Point estimate parameter ratio, C max: (Molidustat + atazanavir)/molidustat, ANOVA
[7] = test system: EPO; experiment: Clinical DDI study: pharmacodynamics, serum erythropoietin; assay type: in vivo, human; conditions: N 13
[8] = test system: HIF‐PH (EC 1.14.11.29); conditions: cited from earlier work
[9] = male, human, plasma, oral, 25 mg

O=c1c(-n2ccnn2)c[nH]n1-c1cc(N2CCOCC2)ncn1 [Molidustat]
Fraction metabolized via total glucuronidation (fm) [1]: ~ 0.9 and 0.9 | activity for glucuronidation of molidustat [2]: lacked measurable activity | activity for glucuronidation of molidustat [3]: lacked measurable activity | activity for glucuronidation of molidustat [4]: lacked measurable activity | activity for glucuronidation of molidustat [5]: lacked measurable activity | Point estimate parameter ratio, AUC [6]: 2.0665 | Point estimate parameter ratio, AUC(0‐tlast) [6]: 2.0766 | Point estimate parameter ratio, C max [6]: 2.0689 | Point estimate parameter ratio, AUC ([6]; listed as molidustat): 2.07 and 2 | Point estimate parameter ratio, AUC(0‐tlast) ([6]; listed as molidustat): 2.08 | Point estimate parameter ratio, C max ([6]; listed as molidustat): 2.07 | increase in exposure for molidustat with concomitant atazanavir ([6]; AUC, AUC(0‐t last), C max): approximately 100% | half-life [6, 9]: 6.3 h | t max [6, 9]: 0.75 h | EPO AUC(0‐24), absolute EPO concentration, arithmetic mean ± SD [7]: 385 ± 121 IU L^−1*h | EPO AUC(0‐24), absolute EPO concentration, geometric mean/CV% [7]: 365 IU L^−1*h | EPO C max, difference to baseline, arithmetic mean ± SD [7]: 12.8 ± 4.02 IU L^−1 | EPO C max, ratio to baseline, arithmetic mean ± SD [7]: 2.62 ± 0.578 | EPO C max, ratio to baseline, geometric mean/CV% [7]: 2.56 | inhibition of HIF‐PH [8]: nanomolar concentration range

Reference: publication PMC7983974 (Basic & Clinical Pharmacology & Toxicology, 2020)
